Laboratory results: patent publication US20150315179A1, “COMPOUNDS AND METHODS OF TREATING NEUROLOGICAL DISORDERS” (Torrey Pines Institute For Molecular Studies, priority 2014, published 2015)

Key:
sAPPα [1] = assay: Mouse brain lysate immunoblot, sAPPα; format: in vivo; conditions: i.p. 100 mg/kg for 5 days, brain lysates
Method: (§1) FIGS. 9.2A and B illustrate that THPI-244 increases TrkA and sAPPα in the mouse brain. FIG. 9.2A illustrates that THPI-244 was administered to mice by i.p. injections at 100 mg/kg body weight for 5 days and the brain lysates were subjected to immunoblots. Specific antibodies were used to detect TrkA and sAPPα. […] Data are mean±SEM, n=3*, p<0.05, ***, p<0.001.

TrkA protein levels = assay: TrkA protein immunoblot, NT2 cells with or without PKC inhibitor; format: cell-based, human
Method: (§2) (3). THPI-244 increases TrkA receptor levels independent of protein kinase C (PKC). Next to clarify whether increased sAPPα levels depends on increased TrkA activation, NT2 cells were treated with THPI-244 with or without TrkA inhibitor (cat # GW 441756, Tocris Bioscience) at 50 nM final concentration. After 24 h, sAPPα levels were quantified from the conditioned medium by immunoblots. […] We next wanted to address whether increased TrkA protein levels by THPI-244 depends on PKC since PKC activators are well-known to induce sAPPα secretion (Etcheberringaray, R., et al., 2004, PNAS, 101, 11141-11146). NT2 cells were similarly treated with THPI-244 at 100 nM with or without PKC inhibitor (GF 109203, cat #0741, Tocris Bioscience) at 1.0 nM and TrkA protein levels were quantified by immunoblots as shown in FIG. 1.10 (right). […] Thus increased sAPPα level by THPI-244 is through upregulation of TrkA receptor independent of PKC.

TrkA dimer = biological target: T1, TrkA dimer (Homo sapiens, UniProt P04629); assay: TrkA dimerization immunoblot, NT2 cells; format: cell-based; conditions: 48 h
T1 construct: endogenous in cells; host or cells: NT2 cells (stably expressing APP751; no TrkA transfection described)
T1 sequence (P04629 33-796): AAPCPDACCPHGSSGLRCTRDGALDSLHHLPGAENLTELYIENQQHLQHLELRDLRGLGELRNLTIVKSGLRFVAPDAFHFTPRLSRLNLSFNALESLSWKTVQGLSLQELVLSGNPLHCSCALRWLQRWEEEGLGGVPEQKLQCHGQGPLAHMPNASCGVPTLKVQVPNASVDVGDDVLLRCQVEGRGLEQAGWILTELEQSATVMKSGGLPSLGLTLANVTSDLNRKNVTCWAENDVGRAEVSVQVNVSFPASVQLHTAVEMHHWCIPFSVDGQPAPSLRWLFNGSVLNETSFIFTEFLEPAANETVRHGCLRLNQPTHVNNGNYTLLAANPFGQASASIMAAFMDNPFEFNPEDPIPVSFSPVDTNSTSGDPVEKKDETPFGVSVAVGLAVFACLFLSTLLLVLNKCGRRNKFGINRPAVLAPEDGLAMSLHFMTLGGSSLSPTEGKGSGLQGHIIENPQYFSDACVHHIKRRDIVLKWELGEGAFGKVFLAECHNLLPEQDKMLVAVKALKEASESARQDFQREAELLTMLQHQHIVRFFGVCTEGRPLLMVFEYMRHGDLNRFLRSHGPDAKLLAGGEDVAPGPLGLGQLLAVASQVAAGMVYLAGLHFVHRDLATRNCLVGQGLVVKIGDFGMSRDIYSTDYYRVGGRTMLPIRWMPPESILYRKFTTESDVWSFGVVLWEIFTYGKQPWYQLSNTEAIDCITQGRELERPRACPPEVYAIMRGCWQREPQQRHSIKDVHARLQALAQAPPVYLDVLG
Method: FIGS. 9.4A and B illustrates that THPI-244 increases TrkA dimerization in NT2 cells. FIG. 9.4A illustrates that NT2 cells were treated with THPI-244 at 100 and 200 nM for 48 h and the cell lysates were subjected to immunoblots. TrkA monomer was detected at 140 kDa and dimer at 280 kDA. […] Data are mean±SEM, n=4, **, p<0.01, ***, p<0.001 by ANOVA.

TrkA = assay: Mouse brain lysate immunoblot, TrkA; format: in vivo; conditions: i.p. 100 mg/kg for 5 days, brain lysates
Method: as §1

sAPPα [2] = assay: sAPPα increasing activity of THPI-244 analogs; format: cell-based
Source text: The following table illustrates Chemical structures and properties of THPI-244 analogs selected out of 37 analogs, and each have significant sAPPα increasing activity. Toxicity is the minimum dose for toxicity.

human primary neurons [3] = assay: Neurite outgrowth, Sholl analysis of dendritic intersections; format: cell-based; conditions: 2DIV until 6DIV
Source text: (4). The most important property of THPI-244 is its ability to increase neurite outgrowth and dendritic intersections in human primary neurons. Since both TrkA and sAPPα promote neuron growth and provide trophic support, we tested whether treatment of human primary neurons with THPI-244 induces neurite outgrowth. […] Considering an enormous potential for such an excellent results in human neurons, we did systematic analysis by also treating neurons in the presence of TrkA inhibitor to verify if the increased neurite outgrowth is mediated by TrkA receptor. Sholl analysis using ImageJ software of individual neurons (at least 30 per group) immunostained for MAP2 antibody confirmed our initial findings. […] This confirmed that THPI-244 increases TrkA protein levels which has vital role in regulating neuritic outgrowth.

[4] = tested on: sAPPα in supernatants of 7WD10 cells; assay: Western blot sAPPα release assay, 7WD10 cells; format: cell-based
Method: (2). To ascertain that hits identified as a result of AlphaLISA assay are not due to artifacts of the detection system, the sAPPα levels were measured by Western blots as a secondary assay downstream of primary HTS to confirm hits or discard artifacts of the AlphaLISA assay. The assay was performed using a range of concentrations of hit compounds (10-5,000 nM). A hit compound named thiazole piperazine #244 (THPI-244) and THPI-326 induced dose-dependent increase of sAPPα in supernatants of 7WD10 cells (FIG. 1.3). […] Since compound THPI-244 increased sAPPα levels more than THPI-326, we focused on THPI-244 for further validation.
Western blot sAPPα release assay. 7WD10 cells were grown in 6-well plates and treated with test compounds and SAHA (vorinostat) at several concentrations in duplicate wells. After 24 h of drug exposure, the conditioned media (CM) was collected, centrifuged to remove cell debris and subjected to SDS-PAGE electrophoresis. sAPPα (6E10, mouse IgG from IBL America ltd) was detected using indicated antibody. To detect APP-FL holoprotein and C-terminal fragments (CTFs, CT15 antibody), the cells were lysed using lysis buffer (1% NP40) with complete protease inhibitor mix (Sigma) supplemented with sodium vanadate and microcystine. Samples were subjected to SDS-PAGE, transferred and immunoblotted with indicated antibodies and detected by enhanced chemiluminescence method. Quantification of Western blot signals was done using ImageJ software.

[5] = tested on: sAPPα levels in conditioned medium of NT2 cells; assay: sAPPα immunoblot, NT2 cells with or without TrkA inhibitor; format: cell-based, human; conditions: 24 h
Method: as §2

human primary neurons [6] = assay: MTT cytotoxicity, human primary neurons; format: cell-based
Source text: (4). Toxicity is another crucial limitation for successful drug development as evidenced by recent failure of γ-secretase inhibitors at the clinical trials due to cytotoxicity (Cole, S L and Vassar, R, 2007, Mol. Neurodeg. 2, 22-47; Doody R S, et al. 2013. N. Eng. J. Med. 369, 341-350). Therefore we measured cytotoxicity by very sensitive MTT assay as described previously (Hayes, C D., et al. 2013, BMC Medicine. 26, 11.81; 23; Hayes, C D., et al., 2012, PLoS One 7, e45841) in human primary neurons obtained from a commercial source (cat #1520, ScienCell, Carlsbad, Calif., USA) and fibroblasts derived directly from A D patients (cat# AG06263C, Coriell Institute Cell repository supported by NINDS, NIH). […] We directly used human neurons for toxicity studies so as to reduce the chances of future failure at a later stage due to toxicity.

O=C(Cc1ccccc1)N[C@H](CNc1nc(CN2CCN(C(=O)Cc3ccccc3)CC2)cs1)c1ccccc1 [THPI-244]
increase of sAPPα (sAPPα [1]): 89%
TrkA protein levels (TrkA protein levels; THPI-244 100 nM): 197%
TrkA protein levels (TrkA protein levels; THPI-244 100 nM with PKC inhibitor GF 109203 1.0 nM): 192%
increase of TrkA dimer (TrkA dimer; 100 nM): 82%
increase of TrkA dimer (TrkA dimer; 200 nM): 134%
increase of TrkA (TrkA): 78%
% sAPPα ↑ (sAPPα [2]): 257%
number of dendritic intersections (human primary neurons [3]; Sholl analysis): highly significant increase
number of dendritic intersections (human primary neurons [3]; THPI-244 with TrkA inhibitor): almost completely prevented the increased intersections
levels of APP-FL ([4]; CHO cells, Western blot): no change
increase of sAPPα over untreated control cells ([4]; as low as 10 nM, 7WD10 supernatants): 2 fold
sAPPα levels ([5]; THPI-244 100 nM with TrkA inhibitor GW 441756 50 nM): 132%
sAPPα levels ([5]; THPI-244 100 nM): 245%
concentration from which cytotoxicity is significant (human primary neurons [6]; MTT, 24 h exposure, human primary neurons): 40 µM
therapeutic window (human primary neurons [6]; human primary neurons and AD fibroblasts): 800
